Laboratory results as given in article PMC6208908, “Field template-based design and biological evaluation of new sphingosine kinase 1 inhibitors” (Breast Cancer Research and Treatment, 2018).
Entries after “also recorded” stand apart in the source; their conditions may differ. Marks after values point to notes of the source that are not given here.

How the values were obtained:
[1] = Whole-body toxicity: body and organ weights, full blood count; format: in vivo, BALB/c nude mice; details: 5 mg/kg each drug i.p. twice a week for 2 weeks, 4T1 tumour-bearing mice
Experimental: Breast cancer allografts were established in 6–8-week-old BALB/c nude mice by injection of 10^6 4T1 cells into their mammary pad. Two weeks after implantation, mice were randomised into treatment groups (n = 6/group) and treated twice a week for 2 weeks with intraperitoneal injections of dimethyl sulfoxide (DMSO), 5 mg/kg DTX, 5 mg/kg SK-F, 5 mg/kg DTX + 5 mg/kg SK-F. One day after the last treatment, all mice were euthanized and blood was collected. Tumour long and short radii were measured using calipers and tumour volume (v) was calculated using the formula v = 4/3 πab^2 (a – long radius, b – short radius). Mice and individual organs were weighed and primary tumours were then processed for analysis of SK1 activity as described above. Full blood count and liver function test analysis was done in the Hammersmith hospital biochemical lab.
Tumour-bearing mice were divided into four groups (n = 6) and injected with: DMSO, 5 mg/kg DTX, 5 mg/kg SK-F, 5 mg/kg DTX + 5 mg/kg SK-F. Two weeks after the tumour cells inoculation, we began intraperitoneal injections of drug preparations and continued these twice a week for two weeks. Based on our previous studies, we have chosen relatively smaller doses of SK-F and DTX in order to investigate their combined effect and potential chemosensitisation of breast tumours to taxane therapies. In the control group, tumours grew progressively and rapidly (Fig. 5a). […] Five mg/kg DTX has induced a significant reduction in tumour volume to 281 mm^3. The biggest reduction in tumour volume to 159 mm^3 was observed when DTX was combined with SK-F (Fig. 5a). […] We have further investigated the effects of the used treatments on mouse whole-body toxicity. DTX has reduced body and liver weight, while SK-F had no significant effect (Table 1). DTX has induced significant anaemia and leukopenia, while the effects of SK-F were very moderate. In all cases, the effects of combined therapy were similar to DTX alone (Table 1). Liver function test was performed as a surrogate marker for chemotherapy-induced liver damage (Fig. 6). […] The combination therapy had similar toxicity profile to DTX alone, while exerting higher antitumour efficacy (Fig. 5a).

SK1 protein = SK1 protein level (Figure S9); format: cell-based
recombinant SK2 = target: T1, recombinant SK2 (Homo sapiens, UniProt Q9NRA0); assay: SK2 activity assay with recombinant SK2 (high salt), Lineweaver-Burk; format: biochemical; details: Lineweaver-Burk plot, high salt (Figure S8B)
T1 sequence (Q9NRA0 1-654): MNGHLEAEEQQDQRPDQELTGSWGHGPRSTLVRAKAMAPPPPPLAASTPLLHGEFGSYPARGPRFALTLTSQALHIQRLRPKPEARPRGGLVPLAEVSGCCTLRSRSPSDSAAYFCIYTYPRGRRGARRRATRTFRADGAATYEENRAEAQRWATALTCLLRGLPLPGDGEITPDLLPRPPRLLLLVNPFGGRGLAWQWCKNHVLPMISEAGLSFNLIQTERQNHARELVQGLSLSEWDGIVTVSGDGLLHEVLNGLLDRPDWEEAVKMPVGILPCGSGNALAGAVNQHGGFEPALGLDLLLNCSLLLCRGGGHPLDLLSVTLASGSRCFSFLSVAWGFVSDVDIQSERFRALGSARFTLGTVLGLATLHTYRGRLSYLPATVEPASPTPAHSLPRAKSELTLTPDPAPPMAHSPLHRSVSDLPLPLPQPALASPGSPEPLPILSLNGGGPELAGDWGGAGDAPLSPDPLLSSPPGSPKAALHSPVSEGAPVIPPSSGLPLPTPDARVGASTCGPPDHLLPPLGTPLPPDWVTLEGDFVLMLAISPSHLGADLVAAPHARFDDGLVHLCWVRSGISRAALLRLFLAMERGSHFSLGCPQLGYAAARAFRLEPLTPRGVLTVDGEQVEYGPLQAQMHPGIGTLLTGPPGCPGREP
Experimental: (§1) SK assay was performed using radiolabeling as previously described, in conditions favouring SK1 or SK2 activity as required.
(§2) SK1 activity was determined in the presence of triton X-100 and SK2 activity was measured in the presence of high salt concentrations, conditions that favour SK1 and SK2, respectively. […] Km for SK1 was 6.97 ± 1.20 µM, Vmax 98 ± 4 µM/min/mg protein and Ki for SK-F 0.46 ± 0.1 µM. […] Some SK inhibitors such as SKI-II were previously shown to induce proteasomal degradation of SK1 [48, 49].

SK1 mRNA = SK1 mRNA expression by qRT-PCR in MDA-MB-231 cells; format: cell-based, human; details: 1, 2, 5 and 10 µM, 24 h
Experimental: Isolation of total RNA from MDA-MB-231 cells was performed using the RNeasy Mini kit (Qiagen, Valencia, CA, USA) as per manufacturer’s instructions. RNA quantity and purity were measured using a NanoDrop ND-1000 Spectrophotometer (Thermo Fisher Scientific, Loughborough, UK). Reverse transcription was performed using precision nanoScript™ reverse transcription kit (PrimerDesign Ltd, Southampton, UK). qRT-PCR was done as already described. Ct values were exported and analysed using qbase software (Biogazelle NV, Zwijnaarde, Belgium).
Fig. 3 Effect of compounds SK-A to SK-F on SK1 mRNA levels. MDA-MB-231 cells were incubated with 1, 2, 5 and 10 µM of compounds SK-A to SK-F for 24 h. SK1 mRNA expression was measured by qRT-PCR. Columns, means of three independent experiments normalised to control; bars, SEM. (*p < 0.05; **p < 0.01)

recombinant SK1 = recombinant SK1 (Homo sapiens, UniProt Q9NYA1); assay: SK1 activity assay, cell-free (recombinant SK1 extract, radiolabelling); format: biochemical
Experimental: as §1
The synthesised compounds were then screened for SK1 inhibition. Compounds SK-A to SK-F and SKI-II (commercial inhibitor of SK used as positive control with reported IC50 0.5 µM [14]) at 1 µM were incubated in the presence of recombinant SK1 extract (in excess), 1 µM of ATP, and exogenous 1 µM sphingosine for 1 h followed by measurement of SK1 activity.
Fig. 2 Inhibition of sphingosine kinase 1 in cell-free extract and in vitro. a 1 µM of compounds SK-A to SK-F and SKI-II (commercial inhibitor of SK used as a positive control) were incubated in the presence of recombinant SK1 extract (in excess), 1 µM of ATP, and 1 µM exogenous sphingosine for 1 h. b MDA-MB-231 cells were incubated with 1 µM of compounds SK-A to SK-F and SKI-II for 6 h. SK1 activity was measured as described in materials and methods. Columns, means of three independent experiments normalised to vehicle; bars, SEM. (ns, non-significant; *p < 0.05; **p < 0.01)
as §2

Chain of recombinant SK1 (Q9NYA1 whole entry): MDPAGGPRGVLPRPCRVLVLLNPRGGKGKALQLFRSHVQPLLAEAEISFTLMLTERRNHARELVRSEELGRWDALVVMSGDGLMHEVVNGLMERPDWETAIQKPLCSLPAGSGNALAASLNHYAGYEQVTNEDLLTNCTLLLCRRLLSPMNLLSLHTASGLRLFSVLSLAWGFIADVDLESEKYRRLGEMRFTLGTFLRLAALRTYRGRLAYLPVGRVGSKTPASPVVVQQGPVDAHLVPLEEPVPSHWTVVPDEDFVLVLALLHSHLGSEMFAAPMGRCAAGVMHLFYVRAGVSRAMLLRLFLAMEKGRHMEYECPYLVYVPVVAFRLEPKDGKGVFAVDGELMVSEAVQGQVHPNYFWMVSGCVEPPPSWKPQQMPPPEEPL

CCCCCCCCc1ccc(NC(=O)c2ccccc2)cc1 [SK-F]
Hb [1]: 90 ± 8^a % of control ± SEM
WCC [1]: 78 ± 7 % of control ± SEM
Weight of Body [1]: 91 ± 6^ns % of control ± SEM
Weight of Kidney [1]: 118.2 ± 3.6 % of control ± SEM
Weight of Liver [1]: 106.7 ± 5.5^a % of control ± SEM
Weight of Lungs [1]: 117.7 ± 5.6 % of control ± SEM
Weight of Spleen [1]: 111.2 ± 13.4^a % of control ± SEM
effect on SK1 protein (SK1 protein): did not induce any change
inhibition of SK2 (recombinant SK2): no inhibition
effect on SK1 mRNA expression (SK1 mRNA): did not elicit any changes
inhibition of SK1 activity in cell-free settings (recombinant SK1; 1 µM compound, recombinant SK1 extract in excess, 1 µM ATP, 1 µM sphingosine, 1 h): most potent inhibitor of SK1 activity; also recorded: statistically significant inhibition
IC50 (recombinant SK1; Figure S7, read-out: IC50 for purified enzyme (SK1 activity dose response)): 0.92 µM
mode of SK1 inhibition (recombinant SK1; Lineweaver-Burk plot, increasing sphingosine (Figure S8A)): competitive inhibitor
Ki (recombinant SK1; recombinant SK1, increasing sphingosine, triton X-100, Lineweaver-Burk): 0.46 ± 0.1 µM
